The values below come from patent US20100113494A1, “13,13a-Dihydroberberine Derivatives For Use In Pharmaceutical Compositions” (SHANGHAI INSTITUTE OF MATERIA MEDICA, CHINESE ACADEMY OF …, priority 2006, published 2010).

Data set [1] relates to L6 muscle cells. Put plainly: glucose absorption model test in L6 muscle cells. In kind it is cell-based. The procedure:
(§1) In our study, the glucose transport rate in L6 muscle cells increased by about 3 times with 10 μM berberine hydrochloride. In a further glucose absorption model test in L6 muscle cells, the glucose absorption in L6 muscle cells increased by more than 2 times with […] berberine hydrochloride in 20 mM glucose medium. […] The improvement in glucose absorption induced by insulin was inhibited obviously, while that induced by berberine was not affected after the treatment with wortmannin, a specific inhibitor of insulin signaling pathway.

Data set [2] concerns L6 muscle cells. Put plainly: model test on the glucose transport in L6 muscle cells. The format is cell-based. As to conditions: 10 μM. The procedure:
So, berberine belongs to non-insulin dependent glucose absorption enhancer in the peripheral tissues of the human body. […] In a model test on the glucose transport in L6 muscle cells, the transport rate of 3-methyl glucose in L6 muscle cells increased by about 0.5 times with 400 μM metformin hydrochloride. Berberine hydrochloride could achieve the same effect with less dosage than metformin in a model test on the glucose transport in L6 muscle cells in vitro.
as §1

The subject of a further data set is βTC3 cells. As to conditions: cited from earlier work.
Another data set deals with diabetic mice. Particulars: Liu 1996; cited from earlier work.
Data set [3] concerns insulin receptor genes and peroxisome proliferator activated receptor genes. As to conditions: Jiang, CN01121906.8; cited from earlier work.
The subject of data set [4] is insulin signaling pathway. Put plainly: immunoblotting assay of L6 muscle cells, insulin signaling pathway. The format is cell-based. For orientation: Immunoblotting shows a protein as a band on a membrane.
In a further data set the test system is AMP:ATP ratio in cells. Put plainly: AMP:ATP ratio in cells by high performance liquid chromatography. In kind it is cell-based. As to conditions: HPLC.
For data set [5], the system named is normal mice and alloxan-induced diabetic mice. Particulars: Chen, Xie 1986, cited from earlier work.
For another data set, the system named is p38 MAPK kinase. Put plainly: immunoblotting assay of L6 muscle cells, p38 MAPK. The format is cell-based.
The next data set relates to HepG2 cells. As to conditions: 5-100 μmol of berberine; cited from earlier work.
The test system of a further data set is type 2 diabetic patients. As to conditions: cited from earlier work.
Another data set relates to AMPK. Put plainly: immunoblotting assay of L6 muscle cells, AMPK. In kind it is cell-based.
Data set [6] deals with L6 muscle cells. As to conditions: 400 μM; cited from earlier work.
In data set [7] the test system is C57BL/6J mice fed by high-fat diet. Put plainly: free fatty acid and triglyceride in blood plasma of high-fat diet obese mice. The format is in vivo. As to conditions: 100 mg/kg/day for 2 weeks. The protocol: (§2) Ten mice per group were used to perform the efficacy study of the compounds. Dihydroberberine derivative 19 or its sulfate salt was mixed into the high-fat diet, and administered at a dose of 100 mg/kg/day for 2 weeks. After the mice were starved overnight, basal blood sugar value (0 min) was measured by taking blood from tail vein. Then the mice were injected glucose intraperitoneally at a dose of 2 g/kg according to the body weight of the mice in control group which were fed by normal diet followed by measuring blood sugar value at 15, 30, 45, 60, 90 and 120 min respectively and calculating the area under curve (AUC). The body weight and visceral fat of the mice were weighted, and the contents of fatty acid and triglyceride in the blood plasma of the mice were determined.
(§3) In FIGS. 2-4, CH-con means the normal mouse, HF-con refers to the obese mouse, HF-BBR19 is the obese mouse treated with dihydroberberine derivative 19 for 2 weeks, and HF-BBR19Y is the obese mouse treated with the sulfate salt of dihydroberberine derivative 19 for 2 weeks.

For data set [8] the test system is unchanged. Put plainly: body weight and visceral fat of high-fat diet obese mice. The format is in vivo. As to conditions: 100 mg/kg/day for 2 weeks. The procedure:
as §2, §3
Thus they may have a potential effect on treating obesity.

Data set [9] shares this test system. Put plainly: intraperitoneal glucose tolerance test (ipGTT) in high-fat diet obese mice. The format is in vivo. Particulars: 100 mg/kg/day in high-fat diet for 2 weeks, glucose 2 g/kg intraperitoneally. The procedure:
as §2, §3
The mice which had been treated with dihydroberberine derivative 19 or its sulfate salt for 2 weeks and the mice in control group were intraperitoneally injected glucose at 2 g/kg after being starved overnight. […]

The test system is the same in data set [10]. Put plainly: mouse models with insulin resistance and obesity induced by a high-fat diet (experimental conclusion). As to conditions: high-fat diet mouse model. The format is in vivo. The procedure: as §2

Where a name gives a salt, the structure may show the parent alone. Read-outs that look alike come from different tables or passages of the source.

`COc1ccc2cc3[n+](cc2c1OC)CCc1cc2c(cc1-3)OCO2` [berberine hydrochloride]: the “increase of glucose absorption in L6 muscle cells” value in the data set with L6 muscle cells [1] (5 berberine hydrochloride in 20 mM glucose medium) was “more than 2 times”. The “increase of glucose transport rate in L6 muscle cells” value in the data set with L6 muscle cells [2] is “about 3 times”.
`COc1ccc2cc3[n+](cc2c1OC)CCc1cc2c(cc1-3)OCO2` [berberine, Berberine]: in the data set on βTC3 cells, the “stimulation of βTC3 cells to secrete insulin” value is “did not stimulate”. Further, the “effect on reversing diabetic renal failure” value in the data set with diabetic mice is reported as “has a significant effect on reversing diabetic renal failure and”. Further, the “expressions of insulin receptor genes and peroxisome proliferator activated receptor genes” value in [3] is “Berberine can interact with insulin receptors and increase”. Moreover, in the data set with L6 muscle cells [1] (Compound C and SB202190), the “glucose absorption induced by berberine after treatment with AMPK and p38 MAPK specific inhibitors” value was “obviously lowered”. Besides, the “glucose absorption induced by berberine after treatment with wortmannin” value in the data set with L6 muscle cells [1] (wortmannin, specific inhibitor of insulin signaling pathway) is listed as “not affected”. The “effect on insulin signaling pathway” value in [4] is given as “little effect”. Moreover, the “AMP:ATP ratio in cells” value in the data set on AMP:ATP ratio in cells is recorded as “increased significantly”. Besides, the “effect on lowering blood glucose” value in [5] (dose of 40 mg/kg) is on record as “atherosclerosis. It had a significant effect on lowering blood”. The “lowering blood glucose levels” value in [5] (normal mice and alloxan-induced diabetic mice) is on record as “biguanides. It can lower blood glucose levels of both normal mice”. The “activity of p38 MAPK kinase” value with p38 MAPK kinase was “significantly reinforced”. In the data set on HepG2 cells, the “increase of glucose consumption in HepG2 cells” value is reported as 32-60%. In the data set on type 2 diabetic patients (20 cases not improved by D860, glibenclamide etc., 3 months, Zhang 1999), the “fasting blood glucose levels of all patients” value was “levels of all patients were lowered to normal levels 3 months”. For the same compound, the side effects entry in the data set with type 2 diabetic patients (20 cases, Zhang 1999) was “dependent on dose, and no side effects such as hypoglycemia”. For the same compound, in the data set with type 2 diabetic patients (57 cases, berberine added after secondary failure of sulfonylurea alone or with metformin, 1 month, Wang 2002), the total efficiency result is “efficiency was 81%”. In the data set on type 2 diabetic patients (60 cases, 1-3 months, Ni 1988), the “adverse effect during the treatment” value was “hemogram during the treatment and no obvious adverse effect”; the “average decrease of fasting blood glucose” value was “that the fasting blood glucose decreased averagely by 5.1 mmol/L”. Further, the “toxic and/or adverse effects observed” value with type 2 diabetic patients (60 cases, Hu 1995) is on record as “patients with overweight recovered their normal weights. No”. Besides, in the data set on type 2 diabetic patients (68 cases, Shi 2000), the “blood serum insulin levels after the treatment” value was “The blood serum insulin levels of the patients increased”; the total efficiency result is “significantly, and the total efficiency was 86.8%. The action”. For the same compound, the “time to disappearance of polyuria, polydipsia and polyphagia for all patients” value with type 2 diabetic patients (75 cases, Yu 1994) is recorded as “within two weeks after administration of berberine accompanying”. Moreover, in the data set with type 2 diabetic patients (Juan WANG 2004), the “blood glucose levels, observed clinically” value is “decreased” and the “blood serum insulin levels, observed clinically” value is “increased”. In the data set on type 2 diabetic patients (non-insulin dependent diabetic patients, 30 persons per group, 4 weeks, Yu, Yan 1995), the “curative effect (blood glucose, blood serum insulin) compared with Diamicron group” value was “showed that the two groups had similar curative effects and no”. Further, in the data set with type 2 diabetic patients (observed for 4 years, regardless of dose, Yu 1994), the “patients observed with adverse effects or hypoglycemia” value was “treated with berberine and observed for 4 years, and none of them”. In addition, in the data set on AMPK, the “activity of AMPK” value is given as “significantly reinforced”.
With `CN(C)C(=N)N=C(N)N` [metformin hydrochloride], in the data set on L6 muscle cells [6], the “increase of transport rate of 3-methyl glucose in L6 muscle cells” value is listed as “about 0.5 times”.
For the compound `COc1ccc2c(c1OC)CN1CCc3cc4c(cc3C1=C2)OCO4` [Compound 19], in data set [7] (HF-Con 0.76±0.03), the “content of free fatty acid (NEFA) in blood plasma” value came to 0.6 ± 0.05 mmol/L. Also, the “content of triglyceride TG in blood plasma” value in [7] (HF-Con 1.20±0.05) was found to be 0.86 ± 0.08 mmol/L. In addition, in data set [8], the “increase in body weight versus control group” value is recorded as “significantly less” and the “ratio of intra-abdominal (visceral) fat to body weight versus control group” value is reported as “lowered significantly”. Further, in data set [9], the “glucose tolerance (ipGTT, area under curve)” value is “significantly improved”. In data set [10], the improving insulin resistance entry is listed as “significant effects” and the relieving fatty liver entry was “significant effects”.
